Assay results from the OPERA property sets (Mansouri et al. 2018).
Peptide text beside a SMILES is read from it. * marks the point of attachment. NHtBu = CC(C)(C)N*

CC(C)(C)C1CCN(N=O)CC1
logP: 2.54

CN1CCN(Cc2ccc(C(=O)OCn3ncc4c(=O)[nH]cnc43)cc2)CC1
logP: 1.47

CCOC(=O)C(F)(F)F
logP: 1.18

C=CCC1(CC(=C)Br)C(=O)NC(=O)NC1=O
logP: 1.37

CC(=O)c1ccccc1OCC(=O)O
logP: 1.25

N#Cc1cccc(C#N)c1
logP: 0.8

CC1(C)S[C@@H]2[C@H](NC(=O)C(C(=O)Oc3ccc4c(c3)CCC4)c3ccccc3)C(=O)N2[C@H]1C(=O)O (some centres undefined)
logP: 3.77

Nc1ccncc1
logP: 0.32

COc1ccc(C=C(C(C)=O)C(C)=O)cc1
logP: 1.73

CCc1ccc(C(=O)OCCN(C)C)cc1
logP: 3.15

Oc1nc(Cl)c(Cl)cc1Cl
logP: 3.21

Cc1ccc(C)o1
logP: 2.24

O=[N+]([O-])c1ccc(Br)cc1
logP: 2.55

O=C(Nc1ccccc1)NS(=O)(=O)c1ccc(Cl)cc1
logP: 3.61

CCCC(C)(C)c1ccc(C2CCCC(O)C2)c(O)c1 (centres undefined)
logP: 4.82

Oc1ccccc1C=Nc1ccccc1
logP: 3.09

CC1=NS(=O)(=O)c2ccc(C(F)(F)F)cc2N1
logP: 1.59

CNC(=O)Oc1cccc(Cl)c1
logP: 2.03

ON=Cc1ccc(Cl)cc1
logP: 2.67

CN(C)CCOC(=O)c1ccc([N+](=O)[O-])cc1
logP: 1.7

O=C(O)C1c2ccccc2Sc2ccccc21
logP: 2.57

Cc1nn(C)c(OCC(=O)c2ccccc2)c1C(=O)c1ccc(Cl)cc1Cl
logP: 3.69

CCC(=O)OC1(C(=O)CCl)C(C)CC2C3CCC4=CC(=O)C=CC4(C)C3C(O)CC21C (centres undefined)
logP: 3.34

Cc1ccccc1N(C)C
logP: 2.85

CC(=O)c1cccc(C#N)c1
logP: 1.16

Clc1cccnc1
logP: 1.33

CC(O)CN (centres undefined)
logP: -0.96

S=P(N1CC1)(N1CC1)N1CC1
logP: 0.53

CN(O)N=Nc1ccc(C(N)=O)cc1
logP: -0.22

CNC(=O)Oc1ccc(C(C)=O)cc1
logP: 1.01

CCCS
logP: 1.81

CCCN(CC)CCC
logP: 2.68

CCOc1cc(N)ccc1C(=O)O
logP: 0.99

O=[N+]([O-])C=Cc1ccsc1
logP: 1.94

Nc1nccc(=O)[nH]1
logP: -0.99

CCN1CCN(CC)C1=S
logP: 1.13

NC(=O)C1CCCN1C(=O)C(Cc1cn(C(=O)OCc2ccccc2)cn1)NC(=O)C1CCC(=O)N1 (centres undefined)
logP: -0.11

NC(=O)OCc1ccc(Cl)cc1
logP: 1.97

O=[N+]([O-])c1ccccc1
logP: 1.85

COP(=S)(OC)Oc1ccc(Sc2ccc(OP(=S)(OC)OC)cc2)cc1
logP: 5.96

Nc1ccc(C[C@H](N)C(=O)O)cc1
logP: -2.2

O=C(CCBr)N1CCN(C(=O)CCBr)CC1
logP: 0.42

Oc1ccc(Cl)c(Cl)c1Cl
logP: 3.8

NC(=O)CCCCc1ccncc1
logP: 0.42

COC(=O)C1=CCCN(C)C1
logP: 0.35

ClCc1ccccc1
logP: 2.3

CCC(=O)O[C@]1(C(=O)CO)CC[C@H]2[C@@H]3CCC4=CC(=O)CC[C@]4(C)[C@H]3[C@@H](O)C[C@@]21C
logP: 2.7

CCC1(C2=CCCCC2)C(=O)NC(=O)N(C)C1=O (centres undefined)
logP: 2.25

CCOC(=O)C(=O)Nc1ccccc1
logP: 1.48

CS(=O)(=O)c1ccccc1
logP: 0.5

NC(=O)c1ccsc1
logP: 0.5

CN(C)C(=N)N(C)C
logP: 0.41

O=S(=O)(O)c1ccc(O)c2ccccc12
logP: -0.44

FC(F)(F)C(F)(F)F
logP: 2

CC(C)c1ccccc1OC(=O)N(C)C
logP: 2.65

Nc1ccc(Cl)c(Cl)c1
logP: 2.69

CCC(=O)c1ccccc1O
logP: 2.54

CNC(=O)c1cccnc1
logP: 0

NC(=O)Cc1ccncc1
logP: -0.65

COc1ccc(Br)cc1-c1nc(N)nc(N)n1
logP: 1.53

Clc1cnc(Cl)c(Cl)c1
logP: 3.11

O=C(O)C(Cl)(Cl)Cl
logP: 1.33

CON(C)C(=O)Nc1ccc(C=C(C#N)C#N)cc1
logP: 2.19

NC(=O)OCCC1=C(N2CC2)C(=O)C(Br)=C(N2CC2)C1=O
logP: 0.68

CCC1(C2=CCCCC2)C(=O)NC(=O)NC1=O
logP: 1.77

CCCCc1cccc(OCC(=O)O)c1
logP: 3.18

CC(=O)NC(C)C(=O)NC(Cc1ccccc1)C(=O)NC(C)C(=O)NC(C)(C)C (stereo not drawn) (Ac-Ala-Phe-Ala-NHtBu; configuration not given here)
logP: 1.01

CC1OC(=O)c2ccccc21 (centres undefined)
logP: 1.41

CC(O)Cc1ccccc1 (centres undefined)
logP: 1.97

CCOc1cccc(S(I)=C(N(C)C)N(C)C)c1 (centres undefined)
logP: -0.1

c1ccc2nc(-c3ccc4ccccc4n3)ccc2c1
logP: 4.31

ON=Cc1ccc(F)cc1
logP: 2.03

O=P1(N(CCCl)CCCl)NCCCO1 (centres undefined)
logP: 0.63

O=C(O)CONC(=O)c1ccccc1
logP: -0.27

C=C1C(=O)OC2C1CCC(C)C1(O)C=CC(=O)C21C (centres undefined)
logP: 0.77

CC(C(=O)O)(c1ccccc1)c1ccccc1
logP: 2.69

Brc1ccncc1
logP: 1.54

Cc1cccs1
logP: 2.33

O=C1C=C(N2CC=CC2)C(=O)c2ccccc21
logP: 2.85

Cc1cccc(OC(=O)c2ccc(N)cc2O)c1
logP: 3.64

O=C=O
logP: 0.83

CNC(=O)CSP(=S)(OC)OC
logP: 0.78

Nc1ccc2ncccc2c1
logP: 1.28

CBr
logP: 1.19

O=[N+]([O-])c1nccn1CC(O)CF (centres undefined)
logP: -0.52

CCCOc1ccc(O)cc1
logP: 2.33

CC/C(=C(/CC)c1ccc(O)cc1)c1ccc(O)cc1
logP: 5.07

CN(C)CC(CN1c2ccccc2Sc2ccccc21)N(C)C (centres undefined)
logP: 4.76

NN1CCCCC1
logP: -0.28

CC12CCC(=O)C=C1CCC1C3CCC4(CCC(=O)O4)C3CCC12C (centres undefined)
logP: 2.98

Cc1ncc([N+](=O)[O-])n1CCCl
logP: 0.88

Nc1nnco1
logP: -1.44

N#Cc1cccc(C=O)c1
logP: 1.18

N#Cc1ccc[nH]1
logP: 1.13

CCOCOCC
logP: 0.84

N#CCC(=O)O
logP: -0.76

O=C(O)CN1CCCCC1
logP: -1.05

CCCCC1CC(C(=O)NC(C(C)Cl)C2OC(SC)C(O)C(O)C2O)N(CC)C1 (centres undefined)
logP: 3.21

O=S(=O)(Nc1ccc(Cl)cc1)C(F)F
logP: 2.84

CN(C)C(=O)OCc1ccc([N+](=O)[O-])cc1
logP: 1.95

O=C(O)c1cccc(Oc2ccccc2)c1
logP: 3.91

Nc1cccc2ncccc12
logP: 1.16

CC(=O)Nc1ccc2cccccc1-2
logP: 2.48

CC(=O)N(C)N=Nc1ccc(C)cc1
logP: 3.23

c1c[nH]nn1
logP: -0.29

O=C(O)Cc1cccc(Cl)c1
logP: 2.09

CC1=NS(=O)(=O)c2ccccc2N1
logP: 0.29

Oc1cc(Cl)c(Cl)c(Cl)c1Cl
logP: 4.21

O=C(COc1ccccc1)N1CCOCC1
logP: 0.74

CC(=O)N(c1ccccc1)c1ccccc1
logP: 2.02

COC(=O)c1cc(Cl)ccc1N
logP: 3.3

CCCC(=O)OCC(=O)C1(O)C(C)CC2C3CCC4=CC(=O)C=CC4(C)C3(F)C(O)CC21C (centres undefined)
logP: 3.55

Clc1cccc2nccnc12
logP: 1.75

NC(=O)Nc1ccc(Br)cc1
logP: 1.98

CC(C)Nc1nc(Cl)nc(NC(C)C)n1
logP: 2.93

CS(=O)CC(=O)C=NO (centres undefined)
logP: -0.72

O=C(NP(=O)(N1CC1)N1CC1)c1ccccc1I
logP: 1.05

O=[N+]([O-])c1ncc[nH]1
logP: 0.15

CC(=O)N[C@H](C(=O)N[C@@H](C)C(=O)N[C@@H](C)C(N)=O)C(C)C
logP: -1.4

CC(=O)c1ccc(NC=O)cc1
logP: 0.94

CC[C@H](C)[C@H](N)C(=O)O
logP: -1.72

CCNc1nc(NCC)nc(SC(F)F)n1
logP: 3.28

CC(=O)Nc1ccc(S(=O)(=O)F)cc1
logP: 2.17

NC(Cc1ccc2ccccc2c1)C(=O)O (centres undefined)
logP: -0.15

O=C(Cn1c(=O)sc2ccc(Cl)cc21)N1CCN(CCO)CC1
logP: 1.04

CC1CN1C1=CC(=O)c2ccccc2C1=O (centres undefined)
logP: 2.17

CC(=O)c1ccc(N(C)C)cc1
logP: 2.1

O=C(Oc1ccccc1)n1cc(F)c(=O)[nH]c1=O
logP: 0.64

COc1ccc(C(C)=O)c(OC)c1OC
logP: 1.63

CC(C#N)c1ncc([N+](=O)[O-])[nH]1 (centres undefined)
logP: -0.07

CCNC(=O)c1[nH]nc(C)c1[N+](=O)[O-]
logP: 0.13

Cc1ccc(S(=O)(=O)N(C)N=O)cc1
logP: 0.58

Cn1cc2ccc([N+](=O)[O-])cc2n1
logP: 1.76

ClC(Cl)=Nc1ccccc1
logP: 2.54

NC(=O)c1cccc(N)c1
logP: -0.33

O=[N+]([O-])c1ccco1
logP: 0.66

c1ccc2c(c1)[nH]c1ccccc12
logP: 3.72

COc1ccccc1Oc1ccccc1
logP: 2.92

Cc1cccc(C)c1NC(=O)C1CNCCN1 (centres undefined)
logP: 0.38

CC(=O)N[C@@H](Cc1ccccc1)C(=O)NCC(N)=O (Ac-Phe-Gly-NH2)
logP: -0.5

c1ccc(COCc2ccccc2)cc1
logP: 3.31

CC1=C(N2CC2)C(=O)C(CCO)=C(N2CC2)C1=O
logP: 0.49

CC1CCCCC1
logP: 3.61

CN(C)N=Nc1ccc(C(N)=O)cc1
logP: 1.2

O=C(O)COc1cccc(O)c1
logP: 0.76

NC(=O)CCc1ccccn1
logP: -0.27

COC(=O)c1c[nH]c(C)c1
logP: 1.96

CNC(=O)Oc1cccc2ccccc12
logP: 2.36

O=C(Nc1ccccc1)Nc1ccc(Cl)c(Cl)c1
logP: 4.7

O=c1[nH]c(=O)n([C@H]2C[C@H](O)[C@@H](CO)O2)cc1F
logP: -1.16

CN(C)c1nc(N)nc(N(C)C)n1
logP: 1.2

CC(=O)CF
logP: -0.39

Brc1ccoc1
logP: 2.18

CCCN1CCCN(CCC)C1=S
logP: 2.83

COc1ccc(N(C)C)cc1
logP: 1.42

O=C(O)c1cccc([N+](=O)[O-])c1
logP: 1.83

O=C(O)CCCCCCc1ccccc1
logP: 3.63

NC(=O)c1ccoc1
logP: 0.09

O=C1NC(=O)C(c2ccccc2)(c2ccc(O)cc2)N1 (centres undefined)
logP: 1.7

O=c1[nH]cnc2nc[nH]c12
logP: -1.11

OCCc1cccnc1
logP: 0.12

O=C(c1ccccc1)C(F)(F)F
logP: 2.15

COc1cnnc2ccccc12
logP: 1.41

CNC(C)Cc1ccccc1 (centres undefined)
logP: 2.07

CCC1C(=O)NC(=O)NC1=O
logP: -0.35

CC(C)(N)Cc1ccccc1
logP: 1.9

CCS(=O)(=O)c1ccc(S(N)(=O)=O)c2ccccc12
logP: 1.24

NNC(=O)c1ccccc1Cl
logP: 0.14

O=C(O)c1ccc(I)cc1
logP: 3.02
